On to `COc1ccc(-c2cc(C(F)(F)F)n3ncc(-c4ccncc4)c3n2)cc1` [Example 4.58, 5-(4-Methoxy-phenyl)-3-pyridin-4-yl-7-trifluoromethyl-pyrazolo[1,5-a]pyrimidine], for which the melting point is 244 °C.
For the compound `Cc1cc(-c2cnn3c(C(F)(F)F)cc(-c4ccc(C(F)(F)F)cc4)nc23)ccn1` [Example 4.33, 5-(4-Trifluoromethyl-phenyl)-3-(2-methyl-pyridin-4-yl)-7-trifluoromethyl-pyrazolo[1,5-a]pyrimidine], the melting point came out at 243 °C.
To `N#CCc1nn2c(C(F)(F)F)cc(-c3ccc(F)c(Cl)c3)nc2c1C#N` [Example 3.1, 5-(3-Chloro-4-fluoro-phenyl)-2-cyanomethyl-7-trifluoromethyl-pyrazolo[1,5-a]pyrimidine-3-carbonitrile] belongs 185 °C; to `Cc1cc(-c2cc(C(F)(F)F)n3ncc(-c4cccnc4)c3n2)ccc1C(F)(F)F` [Example 4.36, 5-(3-Methyl-4-trifluoromethyl-phenyl)-3-pyridin-3-yl-7-trifluoromethyl-pyrazolo[1,5-a]pyrimidine], 177 °C.
`N#Cc1cnn2c(C(F)(F)F)cc(-c3ccc(C(F)(F)F)cc3)nc12` [Example 1.7, 5-(4-Trifluoromethyl-phenyl)-7-trifluoromethyl-pyrazolo[1,5-a]pyrimidine-3-carbonitrile] had a melting point of 176 °C.
For the compound `Fc1ccc(-c2cc(C(F)(F)F)n3cnc(-c4ccncc4)c3n2)cc1Cl` [Example 8.11, 2-(3-Chloro-4-fluoro-phenyl)-8-pyridin-4-yl-4-trifluoromethyl-imidazo[1,5-a]pyrimidine], the melting point came out at 266 °C.
Take `N#Cc1ncn2c(C(F)(F)F)cc(-c3cccc(Cl)c3)nc12` [Example 5.3, 2-(3-Chloro-phenyl)-4-trifluoromethyl-imidazo[1,5-a]pyrimidine-8-carbonitrile]: the melting point was determined as 221 °C.
The same measure for `Cc1cc(-c2cnn3c(C(F)(F)F)cc(-c4ccc(C(F)(F)F)c(C(F)(F)F)c4)nc23)ccn1` [Example 4.54, 5-(3,4-Bis-trifluoromethyl-phenyl)-3-(2-methyl-pyridin-4-yl)-7-trifluoromethyl-pyrazolo[1,5-a]pyrimidine]: 223 °C; for `Cc1cc(-c2cnn3c(C(F)(F)F)cc(-c4ccc(C(F)(F)F)cc4)nc23)cc(C)n1` [Example 4.23, 5-(4-Trifluoromethyl-phenyl)-3-(2,6-dimethyl-pyridin-4-yl)-7-trifluoromethyl-pyrazolo[1,5-a]pyrimidine]: 257 °C.
The same measure for `CCOc1cc(-c2cc(C(F)(F)F)n3cnc(-c4ccnc(C)c4)c3n2)ccc1C(F)(F)F` [Example 8.31, 2-(3-Ethoxy-4-trifluoromethyl-phenyl)-8-(2-methyl-pyridin-4-yl)-4-trifluoromethyl-imidazo[1,5-a]pyrimidine]: 177 °C.
Compound `FC(F)(F)c1cc(-c2ccc(Cl)cc2)nc2c(-c3cccnc3)cnn12` [Example 4.1, 5-(4-Chloro-phenyl)-3-pyridin-3-yl-7-trifluoromethyl-pyrazolo[1,5-a]pyrimidine] had a melting point of 188 °C.
To `FC(F)(F)c1cc(-c2ccc(Cl)cc2)nc2c(-c3ccncc3)cnn12` [Example 4.2, 5-(4-Chloro-phenyl)-3-pyridin-4-yl-7-trifluoromethyl-pyrazolo[1,5-a]pyrimidine] belongs 274 °C; to `Cc1cc(-c2cc(C(F)(F)F)n3ncc(-c4ccccn4)c3n2)ccc1Cl` [Example 4.5, 5-(4-Chloro-3-methyl-phenyl)-3-pyridin-2-yl-7-trifluoromethyl-pyrazolo[1,5-a]pyrimidine], 183 °C; to `Cc1cccc(-c2cc(C(F)(F)F)n3cnc(C#N)c3n2)c1` [Example 5.9, 2-(3-Methyl-phenyl)-4-trifluoromethyl-imidazo[1,5-a]pyrimidine-8-carbonitrile], 202 °C.
The same measure for `FC(F)(F)c1cc(-c2ccc(Cl)cc2)nc2c(-c3cccnc3)ncn12` [Example 8.2, 2-(4-Chloro-phenyl)-8-pyridin-3-yl-4-trifluoromethyl-imidazo[1,5-a]pyrimidine]: 206 °C; for `N#Cc1ncn2c(C(F)(F)F)cc(-c3ccc(Cl)cc3)nc12` [Example 5.2, 2-(4-Chloro-phenyl)-4-trifluoromethyl-imidazo[1,5-a]pyrimidine-8-carbonitrile]: 205 °C.
In turn, `Cc1cc(-c2cnn3c(C(F)(F)F)cc(-c4ccc(F)c(Cl)c4)nc23)ccn1` [Example 4.31, 5-(3-Chloro-4-fluoro-phenyl)-3-(2-methyl-pyridin-4-yl)-7-trifluoromethyl-pyrazolo[1,5-a]pyrimidine] came in with a melting point of 292 °C.
`Cc1nn2c(C(F)(F)F)cc(-c3ccc(F)c(Cl)c3)nc2c1C#N` [Example 2.4, 5-(3-Chloro-4-fluoro-phenyl)-2-methyl-7-trifluoromethyl-pyrazolo[1,5-a]pyrimidine-3-carbonitrile] yielded a melting point of 196 °C.
The same measure for `Cc1cc(-c2cnn3c(C(F)(F)F)cc(-c4ccc(C(F)(F)F)c(F)c4)nc23)cc(C)n1` [Example 4.25, 5-(3-Fluoro-4-trifluoromethyl-phenyl)-3-(2,6-dimethyl-pyridin-4-yl)-7-trifluoromethyl-pyrazolo[1,5-a]pyrimidine]: 245 °C; for `Cc1cc(-c2cc(C(F)(F)F)n3ncc(C#N)c3n2)ccc1Cl` [Example 1.15, 5-(4-Chloro-3-methyl-phenyl)-7-trifluoromethyl-pyrazolo[1,5-a]pyrimidine-3-carbonitrile]: 216 °C; for `COc1ccc(-c2cc(C(F)(F)F)n3cnc(C#N)c3n2)cc1` [Example 5.5, 2-(4-Methoxy-phenyl)-4-trifluoromethyl-imidazo[1,5-a]pyrimidine-8-carbonitrile]: 192 °C.
`N#Cc1cnn2c(C(F)(F)F)cc(-c3ccc(Cl)cc3Cl)nc12` [Example 1.4, 5-(2,4-Dichloro-phenyl)-7-trifluoromethyl-pyrazolo[1,5-a]pyrimidine-3-carbonitrile] registered a melting point of 180 °C.
`FC(F)(F)c1ccc(-c2cc(C(F)(F)F)n3ncc(-c4ccncc4)c3n2)cc1` [Example 4.15, 5-(4-Trifluoromethyl-phenyl)-3-pyridin-4-yl-7-trifluoromethyl-pyrazolo[1,5-a]pyrimidine]: the melting point came out at 261 °C.
For `N#Cc1cnn2c(C(F)(F)F)cc(-c3ccccc3F)nc12` [Example 1.11, 5-(2-Fluoro-phenyl)-7-trifluoromethyl-pyrazolo[1,5-a]pyrimidine-3-carbonitrile], the melting point turned out to be 165 °C.
The same measure for `FC(F)(F)c1ccc(-c2cc(C(F)(F)F)n3cnc(-c4ccncc4)c3n2)cc1C(F)(F)F` [Example 8.34, 2-(3,4-Bis-trifluoromethyl-phenyl)-8-pyridin-4-yl-4-trifluoromethyl-imidazo[1,5-a]pyrimidine]: 211 °C.
`Fc1cc(-c2cc(C(F)(F)F)n3cnc(-c4ccncc4)c3n2)ccc1C(F)(F)F` [Example 8.15, 2-(3-Fluoro-4-trifluoromethyl-phenyl)-8-pyridin-4-yl-4-trifluoromethyl-imidazo[1,5-a]pyrimidine]: the melting point was 267 °C.
The same measure for `COc1ccc(-c2cc(C(F)F)n3ncc(-c4ccncc4)c3n2)cc1` [Example 9.5, 7-Difluoromethyl-5-(4-methoxy-phenyl)-3-pyridin-4-yl-pyrazolo[1,5-a]pyrimidine]: 206 °C; for `N#Cc1cnn2c(C(F)(F)F)cc(-c3ccc(F)cc3F)nc12` [Example 1.10, 5-(2,4-Difluoro-phenyl)-7-trifluoromethyl-pyrazolo[1,5-a]pyrimidine-3-carbonitrile]: 149 °C; for `N#Cc1cnn2c(C(F)(F)F)cc(-c3cccnc3)nc12` [Example 1.21, 5-Pyridin-3-yl-7-trifluoromethyl-pyrazolo[1,5-a]pyrimidine-3-carbonitrile]: 193 °C.
In turn, `Cc1cc(-c2cc(C(F)(F)F)n3cnc(-c4cccnc4)c3n2)ccc1C(F)(F)F` [Example 8.8, 2-(3-Methyl-4-trifluoromethyl-phenyl)-8-pyridin-3-yl-4-trifluoromethyl-imidazo[1,5-a]pyrimidine] returned a melting point of 173 °C.
With `FC(F)(F)c1ccc(-c2cc(C(F)(F)F)n3ncc(-c4ccccn4)c3n2)cc1` [Example 4.12, 5-(4-Trifluoromethyl-phenyl)-3-pyridin-2-yl-7-trifluoromethyl-pyrazolo[1,5-a]pyrimidine], the melting point turned out to be 202 °C.
To `Cc1ccc(-c2cc(C(F)(F)F)n3cnc(-c4cccnc4)c3n2)cc1C(F)(F)F` [Example 8.7, 2-(4-Methyl-3-trifluoromethyl-phenyl)-8-pyridin-3-yl-4-trifluoromethyl-imidazo[1,5-a]pyrimidine] belongs 236 °C.
`Cc1nn2c(C(F)(F)F)cc(-c3ccc(C(F)(F)F)cc3)nc2c1C#N` [Example 2.1, 2-Methyl-5-(4-trifluoromethyl-phenyl)-7-trifluoromethyl-pyrazolo[1,5-a]pyrimidine-3-carbonitrile] registered a melting point of 184 °C.
As to `FC(F)(F)c1ccc(-c2cc(C(F)(F)F)n3cnc(-c4ccncc4)c3n2)cc1` [Example 8.14, 8-Pyridin-4-yl-4-trifluoromethyl-2-(4-trifluoromethyl-phenyl)-imidazo[1,5-a]pyrimidine], the melting point came to 240 °C.
The compound `Cc1ccc(-c2cc(C(F)(F)F)n3cnc(-c4ccncc4)c3n2)cc1C(F)(F)F` [Example 8.16, 2-(4-Methyl-3-trifluoromethyl-phenyl)-8-pyridin-4-yl-4-trifluoromethyl-imidazo[1,5-a]pyrimidine] gave a melting point of 222 °C.
The same measure for `Cc1ccccc1-c1cc(C(F)(F)F)n2cnc(C#N)c2n1` [Example 5.8, 2-(2-Methyl-phenyl)-4-trifluoromethyl-imidazo[1,5-a]pyrimidine-8-carbonitrile]: 151 °C; for `Cc1cc(-c2cc(C(F)(F)F)n3ncc(-c4ccncc4)c3n2)ccc1Cl` [Example 4.4, 5-(4-Chloro-3-methyl-phenyl)-3-pyridin-4-yl-7-trifluoromethyl-pyrazolo[1,5-a]pyrimidine]: 247 °C.

Broadly, the melting point is the temperature, or range, at which the solid turns liquid.

(Values after patent US7514443B2, “Substituted pyrazolo[1,5-a]pyrimidines as inhibitors of metabotropic glutamate receptors” (Hoffmann-La Roche Inc., priority 2003, dated 2009).)
